Literature values, collected in US20070197568A1 (priority 2005, published 2007).

Settings: animals, at doses that inhibit tumor growth

## O=C(CCCCCCC(=O)Nc1ccccc1)NO [SAHA, N-Hydroxy-N′-phenyl octanediamide]
  toxicity to the animal: no toxicity
